As a reminder, the DC50 is the midpoint of the concentration-degradation curve. Read a low DC50 as a more potent degrader.

In the assay the target is T1, BTK (Homo sapiens, UniProt Q06187).
T1 construct: The GM01501.3 cell line endogenously expresses BTK with a HiBiT fusion tag via CRISPR knock-in at its C-terminal region; endogenous in cells; host or cells: GM01501.3 (GM01501 cells engineered by CRISPR knock-in of HiBiT at the BTK locus)
T1 sequence (Q06187 whole entry, the tested form may be a part): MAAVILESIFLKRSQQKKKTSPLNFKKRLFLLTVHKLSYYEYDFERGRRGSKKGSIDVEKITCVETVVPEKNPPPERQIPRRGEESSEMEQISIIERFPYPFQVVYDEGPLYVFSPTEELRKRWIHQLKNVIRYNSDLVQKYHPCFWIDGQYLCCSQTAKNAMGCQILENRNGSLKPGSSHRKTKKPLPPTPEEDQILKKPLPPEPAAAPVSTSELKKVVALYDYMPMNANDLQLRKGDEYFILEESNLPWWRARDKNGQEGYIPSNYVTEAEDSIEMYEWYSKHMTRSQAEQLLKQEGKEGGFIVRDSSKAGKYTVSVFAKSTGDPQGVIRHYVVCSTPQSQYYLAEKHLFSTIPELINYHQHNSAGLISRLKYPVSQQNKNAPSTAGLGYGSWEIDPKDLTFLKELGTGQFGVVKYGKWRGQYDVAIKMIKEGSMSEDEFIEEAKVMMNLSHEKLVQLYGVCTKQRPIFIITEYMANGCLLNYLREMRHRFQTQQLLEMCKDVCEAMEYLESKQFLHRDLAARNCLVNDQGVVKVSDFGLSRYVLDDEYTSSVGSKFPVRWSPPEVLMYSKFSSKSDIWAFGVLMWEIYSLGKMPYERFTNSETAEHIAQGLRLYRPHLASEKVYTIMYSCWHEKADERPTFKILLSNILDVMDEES
Nature of the assay: BTK degradation assay using the HiBiT Method (Nano-Glo HiBiT Lytic Assay, GM01501.3 cells). It is filed as cell-based. The settings on record: HiBiT Degradation on GM01501.3 BTK @ 6 hours. The method in brief:
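CRISPR knock-in GM01501.3 cells expressing endogenous BTK with C-terminal HiBiT tag, treated 6 h at 37 °C with compounds, 11-point half-log titration from 10 μM top, duplicates. Remaining BTK quantified by Nano-Glo HiBiT lytic luminescence versus DMSO controls; DC50 reported.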
(With HiBiT, luminescence reflects the tagged protein that the partner subunit can reach.)
For `Cc1cc(-c2ncnn3cc(-c4cccc(CN5CCC(c6ccc(OC7CCC(=O)NC7=O)cc6)CC5)n4)cc23)ccc1CNC(=O)c1noc(C(C)(C)C)n1` (centres unmarked) [Example 247, 5-(tert-butyl)-N-(4-(6-(6-((4-(4-((2,6-dioxopiperidin-3-yl)oxy)phenyl)piperidin-1-yl)methyl)pyridin-2-yl)pyrrolo[2,1-f][1,2,4]triazin-4-yl)-2-methylbenzyl)-1,2,4-oxadiazole-3-carboxamide], the DC50 was < 100 nM.
In the case of `Cc1cc(-c2ncnn3cc(-c4ccc(CN5CCC(c6ccc(NC7CCC(=O)NC7=O)cc6)CC5(C)C)cc4)cc23)ccc1CNC(=O)c1noc(C(C)(C)C)n1` (centres unmarked) [Example 5, 5-tert-butyl-N-[[4-[6-[4-[[4-[4-[(2,6-dioxo-3-piperidyl)amino]phenyl]-2,2-dimethyl-1-piperidyl]methyl]phenyl]pyrrolo[2,1-f][1,2,4]triazin-4-yl]-2-methyl-phenyl]methyl]-1,2,4-oxadiazole-3-carboxamide] it was < 100 nM; in that of `Cc1cc(-c2ccnc3cn(CCCCN4CCC(c5ccc(NC6CCC(=O)NC6=O)cc5)CC4)nc23)ccc1CNC(=O)c1noc(C(C)(C)C)n1` (centres unmarked) [Example 224, 5-tert-butyl-N-[[4-[2-[4-[4-[4-[(2,6-dioxo-3-piperidyl)amino]phenyl]-1-piperidyl]butyl]pyrazolo[4,3-b]pyridin-7-yl]-2-methyl-phenyl]methyl]-1,2,4-oxadiazole-3-carboxamide], < 100 nM; in that of `Cc1cc(-c2ncnn3cc(-c4ccc(OCCN5CCC(c6ccc(NC7CCC(=O)NC7=O)cc6)CC5)cc4)cc23)ccc1CNC(=O)c1noc(C(C)(C)C)n1` (centres unmarked) [Example 105, 5-tert-butyl-N-[[4-[6-[4-[2-[4-[4-[(2,6-dioxo-3-piperidyl)amino]phenyl]-1-piperidyl]ethoxy]phenyl]pyrrolo[2,1-f][1,2,4]triazin-4-yl]-2-methyl-phenyl]methyl]-1,2,4-oxadiazole-3-carboxamide], < 100 nM.
The figure for `Cc1cc(-c2ncnn3cc(N4CCN(C(=O)[C@@H]5CCC[C@H](NC(=O)c6ccc(OC7CCC(=O)NC7=O)cc6)C5)CC4)cc23)ccc1CNC(=O)c1noc(C(C)(C)C)n1` (stereo partly drawn) [Example 188, 5-(tert-butyl)-N-(4-(6-(4-((1R,3S)-3-(4-((2,6-dioxopiperidin-3-yl)oxy)benzamido)cyclohexane-1-carbonyl)piperazin-1-yl)pyrrolo[2,1-f][1,2,4]triazin-4-yl)-2-methylbenzyl)-1,2,4-oxadiazole-3-carboxamide] is < 100 nM; for `Cc1cc(-c2ncnn3cc(N4CCN(C(=O)CCCC5CN(C(=O)c6ccc(OC7CCC(=O)NC7=O)cc6)C5)CC4)cc23)ccc1CNC(=O)c1noc(C(C)(C)C)n1` (centres unmarked) [Example 184, 5-(tert-butyl)-N-(4-(6-(4-(4-(1-(4-((2,6-dioxopiperidin-3-yl)oxy)benzoyl)azetidin-3-yl)butanoyl)piperazin-1-yl)pyrrolo[2,1-f][1,2,4]triazin-4-yl)-2-methylbenzyl)-1,2,4-oxadiazole-3-carboxamide] it is < 100 nM.
In the case of `CC(C)(C)c1nc(C(=O)NCc2ccc(-c3ncnn4cc(-c5ccc(CN6CCC(CCc7ccc(OC8CCC(=O)NC8=O)cc7)CC6)cn5)cc34)cc2F)no1` (centres unmarked) [Example 239, 5-(tert-butyl)-N-(4-(6-(5-((4-(4-((2,6-dioxopiperidin-3-yl)oxy)phenethyl)piperidin-1-yl)methyl)pyridin-2-yl)pyrrolo [2,1-f][1,2,4]triazin-4-yl)-2-fluorobenzyl)-1,2,4-oxadiazole-3-carboxamide] it was < 100 nM; in that of `Cc1cc(-c2ncnn3cc(-c4ccc(CN5CCC(c6ccc(NC7CCC(=O)NC7=O)cc6)CC5)cc4)cc23)ccc1CNC(=O)c1ccc(C(F)F)cc1` (centres unmarked) [Example 61, 4-(difluoromethyl)-N-[[4-[6-[4-[[4-[4-[(2,6-dioxo-3-piperidyl)amino]phenyl]-1-piperidyl]methyl]phenyl]pyrrolo[2,1-f][1,2,4]triazin-4-yl]-2-methyl-phenyl]methyl]benzamide], < 100 nM; in that of `Cc1cc(-c2ccnc3nn(CCCCN4CCC(c5ccc(NC6CCC(=O)NC6=O)cc5)CC4)cc23)ccc1CNC(=O)c1noc(C(C)(C)C)n1` (centres unmarked) [Example 160, 5-tert-butyl-N-[[4-[2-[4-[4-[4-[(2,6-dioxo-3-piperidyl)amino]phenyl]-1-piperidyl]butyl]pyrazolo[3,4-b]pyridin-4-yl]-2-methyl-phenyl]methyl]-1,2,4-oxadiazole-3-carboxamide], > 1000 nM.
In the case of `Cc1cc(-c2ncnn3cc(-c4ccc(OCCN5CCC(c6ccc(OC7CCC(=O)NC7=O)cc6)CC5)cc4)cc23)ccc1CNC(=O)c1noc(C(C)(C)C)n1` (centres unmarked) [Example 107, 5-tert-butyl-N-[[4-[6-[4-[2-[4-[4-[(2,6-dioxo-3-piperidyl)oxy]phenyl]-1-piperidyl]ethoxy]phenyl]pyrrolo[2,1-f][1,2,4]triazin-4-yl]-2-methyl-phenyl]methyl]-1,2,4-oxadiazole-3-carboxamide], the 50% degradation concentration (DC50) is < 100 nM.
`Cc1cc(-c2ncnn3cc(-c4ccc5c(c4)CN(CCCc4ccc(NC6CCC(=O)NC6=O)cc4)C5)cc23)ccc1CNC(=O)c1noc(C(C)(C)C)n1` (centres unmarked) [Example 57, 5-tert-butyl-N-[[4-[6-[2-[3-[4-[(2,6-dioxo-3-piperidyl)amino]phenyl]propyl]isoindolin-5-yl]pyrrolo[2,1-f][1,2,4]triazin-4-yl]-2-methyl-phenyl]methyl]-1,2,4-oxadiazole-3-carboxamide]: the DC50 was < 100 nM.
As to `CC(C)(C)c1nc(C(=O)NCc2ccc(-c3ncnn4cc(-c5ccc(CN6CCC(c7ccc(NC8CCC(=O)NC8=O)cc7)CC6)cc5)cc34)cc2Cl)no1` (centres unmarked) [Example 48, 5-tert-butyl-N-[[2-chloro-4-[6-[4-[[4-[4-[(2,6-dioxo-3-piperidyl)amino]phenyl]-1-piperidyl]methyl]phenyl]pyrrolo[2,1-f][1,2,4]triazin-4-yl]phenyl]methyl]-1,2,4-oxadiazole-3-carboxamide], the 50% degradation concentration (DC50) was < 100 nM.
The figure for `Cc1cc(-c2ncnn3cc(-c4ccc(CCN5CCC(c6ccc(NC7CCC(=O)NC7=O)cc6)CC5)cc4)cc23)ccc1CNC(=O)c1noc(C(C)(C)C)n1` (centres unmarked) [Example 53, 5-tert-butyl-N-[[4-[6-[4-[2-[4-[4-[(2,6-dioxo-3-piperidyl)amino]phenyl]-1-piperidyl]ethyl]phenyl]pyrrolo[2,1-f][1,2,4]triazin-4-yl]-2-methyl-phenyl]methyl]-1,2,4-oxadiazole-3-carboxamide] is < 100 nM.
Consider `Cc1cc(-c2ccnc3cn(-c4ccc(CN5CCC(c6ccc(NC7CCC(=O)NC7=O)cc6)CC5)cc4)nc23)ccc1CNC(=O)c1noc(C(C)(C)C)n1` (centres unmarked) [Example 223, 5-tert-butyl-N-[[4-[2-[4-[[4-[4-[(2,6-dioxo-3-piperidyl)amino]phenyl]-1-piperidyl]methyl]phenyl]pyrazolo[4,3-b]pyridin-7-yl]-2-methyl-phenyl]methyl]-1,2,4-oxadiazole-3-carboxamide], for which the DC50 is < 100 nM.
In the case of `Cc1cc(-c2ncnn3cc(-c4ccc(CN5CCC(c6ccc(NC7CCC(=O)NC7=O)cc6)CC5)cc4)cc23)ccc1CN1CCN(CC(C)(C)C)CC1=O` (centres unmarked) [Example 103, 3-[4-[1-[[4-[4-[4-[[4-(2,2-dimethylpropyl)-2-oxo-piperazin-1-yl]methyl]-3-methyl-phenyl]pyrrolo[2,1-f][1,2,4]triazin-6-yl]phenyl]methyl]-4-piperidyl]anilino]piperidine-2,6-dione] it was < 100 nM; in that of `Cc1cc(-c2ncnn3cc(CCCCN4CCC(c5ccc6c(N7CCC(=O)NC7=O)nn(C)c6c5)CC4)cc23)ccc1CNC(=O)c1cc(C(C)(C)C)no1` [Example 280, 3-(tert-butyl)-N-(4-(6-(4-(4-(3-(2,4-dioxotetrahydropyrimidin-1(2H)-yl)-1-methyl-1H-indazol-6-yl)piperidin-1-yl)butyl)pyrrolo[2,1-f][1,2,4]triazin-4-yl)-2-methylbenzyl)isoxazole-5-carboxamide], < 100 nM.
In the case of `Cc1cc(-c2ncnn3cc(-c4cccc(-n5cc(CN6CCC(c7ccc(C8CCC(=O)NC8=O)cc7)CC6)c(C)n5)c4)cc23)ccc1CNC(=O)c1noc(C(C)(C)C)n1` (centres unmarked) [Example 205, 5-(tert-butyl)-N-(4-(6-(3-(4-((4-(4-(2,6-dioxopiperidin-3-yl)phenyl)piperidin-1-yl)methyl)-3-methyl-1H-pyrazol-1-yl)phenyl)pyrrolo[2,1-f][1,2,4]triazin-4-yl)-2-methylbenzyl)-1,2,4-oxadiazole-3-carboxamide] it was < 100 nM; in that of `Cc1cc(-c2ncnn3cc(-c4ccc(CN5CCC(c6ccc(NC7CCC(=O)NC7=O)cc6)CC5)cc4)cc23)ccc1CNC(=O)c1ncc(C(C)C)cn1` (centres unmarked) [Example 94, N-[[4-[6-[4-[[4-[4-[(2,6-dioxo-3-piperidyl)amino]phenyl]-1-piperidyl]methyl]phenyl]pyrrolo[2,1-f][1,2,4]triazin-4-yl]-2-methyl-phenyl]methyl]-5-isopropyl-pyrimidine-2-carboxamide], < 100 nM; in that of `Cc1cc(-c2ncnn3cc(CCN4CCN(c5ncc(NC6CCC(=O)NC6=O)cc5F)CC4)cc23)ccc1CNC(=O)c1noc(C(C)(C)C)n1` (centres unmarked) [Example 263, 5-(tert-butyl)-N-(4-(6-(2-(4-(5-((2,6-dioxopiperidin-3-yl)amino)-3-fluoropyridin-2-yl)piperazin-1-yl)ethyl)pyrrolo[2,1-f][1,2,4]triazin-4-yl)-2-methylbenzyl)-1,2,4-oxadiazole-3-carboxamide], < 100 nM.
Turning to `Cc1cc(-c2ccnc3[nH]c(-c4ccc(CN5CCC(c6ccc(NC7CCC(=O)NC7=O)cc6)CC5)cc4)cc23)ccc1CNC(=O)c1noc(C(C)(C)C)n1` (centres unmarked) [Example 161, 5-tert-butyl-N-[[4-[2-[4-[[4-[4-[(2,6-dioxo-3-piperidyl)amino]phenyl]-1-piperidyl]methyl]phenyl]-1H-pyrrolo[2,3-b]pyridin-4-yl]-2-methyl-phenyl]methyl]-1,2,4-oxadiazole-3-carboxamide], the DC50 is < 100 nM.
